Assay results from ChEMBL document CHEMBL1201862, “PubChem BioAssay data set” (2004).
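Briefly, cells in 96-well plates were exposed to five compound concentrations for 48 h, and endpoints were estimated by linear interpolation. Abbreviation: GI50, concentration required for 50% inhibition of growth.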 Activity calls are given as the source filed them. No stated cut-off is given here; in the data, active = GI50 up to about 1.1 µM and inactive = higher.

How the values were obtained:
Test in all cases: NCI-60 cell line screen, 48 h
RXF 393 = tested on: RXF 393
NCI/ADR-RES = tested on: NCI/ADR-RES
SNB-75 = tested on: SNB-75
CCRF-CEM = tested on: CCRF-CEM
SW-620 = tested on: SW-620
HCT-15 = tested on: HCT-15
UACC-257 = tested on: UACC-257
HL-60 = tested on: HL-60
HCC 2998 = tested on: HCC 2998
T47D = tested on: T47D
SN12C = tested on: SN12C
UACC-62 = tested on: UACC-62
NCI-H226 = tested on: NCI-H226
ACHN = tested on: ACHN
SK-MEL-5 = tested on: SK-MEL-5
HCT-116 = tested on: HCT-116
OVCAR-3 = tested on: OVCAR-3
SF-295 = tested on: SF-295
A549 = tested on: A549
K562 = tested on: K562

Compound | GI50 (RXF 393) | GI50 (NCI/ADR-RES) | GI50 (SNB-75) | GI50 (CCRF-CEM) | GI50 (SW-620) | GI50 (HCT-15) | GI50 (UACC-257) | GI50 (HL-60) | GI50 (HCC 2998) | GI50 (T47D) | GI50 (SN12C) | GI50 (UACC-62) | GI50 (NCI-H226) | GI50 (ACHN) | GI50 (SK-MEL-5) | GI50 (HCT-116) | GI50 (OVCAR-3) | GI50 (SF-295) | GI50 (A549) | GI50 (K562)
CSc1ccc(NC(=S)NN(C)C)cc1 | > 10 µM (inactive) | > 10 µM (inactive) | > 10 µM (inactive) | > 10 µM (inactive) | > 10 µM (inactive) | > 10 µM | > 10 µM (inactive) | > 10 µM (inactive) | > 10 µM (inactive) | > 10 µM (inactive) | > 10 µM (inactive) | > 10 µM (inactive) | > 10 µM (inactive) | > 10 µM (inactive) | > 10 µM (inactive) | > 10 µM (inactive) | > 10 µM (inactive) | > 10 µM (inactive) | > 10 µM (inactive) | > 10 µM (inactive)
O=C1C=CC(=O)C(CNc2ccc(C(=O)OCc3ccccc3)cc2)=C1 | 2.68 µM (inactive) | 4 µM (inactive) | 5.25 µM (inactive) | 0.661 µM (active) | 4.99 µM (inactive) | 2.59 µM | 11.5 µM (inactive) | 1.08 µM (active) | 16 µM (inactive) | 1.77 µM (inactive) | 6.18 µM (inactive) | 8.97 µM (inactive) | 12.3 µM (inactive) | 3.66 µM (inactive) | 3.19 µM (inactive) | 5.3 µM (inactive) | 2.4 µM (inactive) | 17.7 µM (inactive) | 14.5 µM (inactive) | 2.62 µM (inactive)
CCCCCc1cc2c(cc1O)CC[C@@H]1[C@@H]2CC[C@]2(C)[C@@H](O)CC[C@@H]12 | 19.5 µM (inactive) | 18.9 µM (inactive) | 13.5 µM (inactive) | 35.3 µM (inactive) | 26.4 µM (inactive) | 15.9 µM | 21 µM (inactive) | 21.3 µM (inactive) | 24.3 µM (inactive) | 24.5 µM (inactive) | 16.2 µM (inactive) | 19.2 µM (inactive) | 14.5 µM (inactive) | 14.1 µM (inactive) | 19.8 µM (inactive) | 17.3 µM (inactive) | 14.3 µM (inactive) | 13.4 µM (inactive) | 19.3 µM (inactive) | 16.7 µM (inactive)
COc1ccc(C(C#N)NC23CC4CC(CC(C4)C2)C3)cc1OC (stereo not given) | > 100 µM (inactive) | > 100 µM (inactive) | > 100 µM (inactive) | > 100 µM (inactive) | > 100 µM (inactive) | > 100 µM | > 100 µM (inactive) | > 100 µM (inactive) | > 100 µM (inactive) | > 100 µM (inactive) | > 100 µM (inactive) | > 100 µM (inactive) | 79.4 µM (inactive) | > 100 µM (inactive) | > 100 µM (inactive) | > 100 µM (inactive) | > 100 µM (inactive) | > 100 µM (inactive) | > 100 µM (inactive) | > 100 µM (inactive)
O=c1cc(O)c2c(O)cc(O)cc2o1 | > 100 µM (inactive) | > 100 µM (inactive) | > 100 µM (inactive) | > 100 µM (inactive) | > 100 µM (inactive) | > 100 µM | > 100 µM (inactive) | > 100 µM (inactive) | > 100 µM (inactive) | > 100 µM (inactive) | > 100 µM (inactive) | > 100 µM (inactive) | > 100 µM (inactive) | > 100 µM (inactive) | > 100 µM (inactive) | > 100 µM (inactive) | > 100 µM (inactive) | > 100 µM (inactive) | > 100 µM (inactive) | > 100 µM (inactive)
C/C(=N\N)C(CN(C)C)C(c1ccccc1)c1c(O)c2ccccc2oc1=O (stereo not given) | > 55.6 µM (inactive) | > 100 µM (inactive) | > 42.4 µM (inactive) | > 27 µM (inactive) | > 100 µM (inactive) | > 100 µM | > 100 µM (inactive) | > 26.7 µM (inactive) | > 100 µM (inactive) | > 10 µM (inactive) | > 100 µM (inactive) | > 73.6 µM (inactive) | > 100 µM (inactive) | 99.5 µM (inactive) | > 100 µM (inactive) | > 80 µM (inactive) | > 100 µM (inactive) | > 86.3 µM (inactive) | > 100 µM (inactive) | > 60 µM (inactive)
